The NIST ThermoML archive (doi:10.1016/j.fluid.2013.09.056)
± gives the expanded uncertainty stated by the source.

Conditions: Liquid, Closed cell (Static) method

Compound | vapor or sublimation pressure (283.15 K) [kPa] | vapor or sublimation pressure (293.15 K) [kPa] | vapor or sublimation pressure (303.15 K) [kPa] | vapor or sublimation pressure (313.15 K) [kPa] | vapor or sublimation pressure (323.15 K) [kPa]
FC(C(F)(F)F)C(F)(F)F [1,1,1,2,3,3,3-heptafluoropropane] | 278.9 ± 7 | 388 ± 7 | 524.5 ± 7 | 699 ± 7.1 | 912.4 ± 7.1
FCC(F)(F)F [1,1,1,2-tetrafluoroethane] | 414 ± 7 | 571.5 ± 7 | 767 ± 7.1 | 1013 ± 7.2 | 1314.7 ± 7.3
CC(F)(F)F [1,1,1-trifluoroethane] | 838.6 ± 7.1 | 1107.9 ± 7.2 | 1435.2 ± 7.3 | 1834 ± 7.5 | 2309.7 ± 7.8
C=C(F)C(F)(F)F [2,3,3,3-tetrafluoro-1-propene] | 436.5 ± 7 | 591 ± 7.1 | 780.5 ± 7.1 | 1015.6 ± 7.2 | 1300.7 ± 7.2
